In patent US5401771A, “Method of combatting household insects” (priority 1992, dated 1995):

Legend:
housefly = test: Study of the killing effect on the housefly (direct spraying, Kearns and March chamber); assay type: in vivo; details: for KT50 (time where 50% of the insects were killed): 4-day old female houseflies, direct spraying, dose 0.25 g/l, Isopar L with 5% acetone
Procedure: A. Study of the killing effect on the housefly.
The insects used were 4-day old female houseflies and the operation was carried out by direct spraying at a concentration of 0.25 g/1 in a Kearns and March chamber. The tested product was dissolved in Isopar L (petroleum solvent) with 5% acetone. 2 ml of solution were sprayed per second and 50 insects were used per treatment Checks were carried out every minute for 10 minutes, then after 15 minutes. The (KT50) time in minutes where 50% of the insects were killed was determined and the results are in Table I.

[1] = test system: cockroaches (Blattella germanica); test: Study of the knock-down effect on cockroaches (direct spraying); assay type: in vivo; details: for percentage of cockroaches knocked down at 100 µg/mL / percentage of cockroaches knocked down at 500 µg/mL: Blattella germanica, 5 min, after 5 minutes, 12-week old males, read-out: KD (percentage of cockroaches knocked down), printed % KILLED; for percentage of cockroaches knocked down at 100 µg/mL: 100 mg/l; for percentage of cockroaches knocked down at 500 µg/mL: 500 mg/l
Procedure: B. Study of the knock-down effect on cockroaches
The test was carried out on 12-week old male cockroaches (Blattella germanica) and the operation was carried out by direct spraying in a 13.5 cm diameter glass chamber. The product tested was dissolved in Isopar and 0.75 ml of solution was sprayed for 2.5 seconds on 20 cockroaches having been placed beforehand in the chamber. The KD (percentage of cockroaches knocked down) after 5 minutes at a dose of 500 mg/1 was determined and the products corresponding to 100% of KD insects at this does were evaluated at a dose of 100 mg/1 by the same protocol and the results are in Table II.

rats [2] = test: Acute toxicity on mammals by oral route; assay type: in vivo; details: relative to C (cis E)
Procedure: (§1) C. Acute toxicity on mammals
(§2) type: rats, vehicle: corn oil.
(§3) The results were expressed in LD50 mg/kg and the results obtained are as follows: […]

[3] = Acute toxicity on mammals by oral route; assay type: in vivo, rats; details: rat, in vivo, rats, vehicle corn oil, read-out: LD50 O.R. (oral route)
Procedure: as §1, §2, §3

rats [4] = test: Acute toxicity on mammals by intravenous route; assay type: in vivo; details: relative to C (cis E)
Procedure: as §1
(§4) type: rats, vehicle: PEG 300.
as §3

[5] = Acute toxicity on mammals by intravenous route; assay type: in vivo, rats; details: rat, in vivo, rats, vehicle PEG 300, read-out: LD50 I.R. (intravenous route)
Procedure: as §1, §4, §3

[6] = conclusion in words, equivalent notably to C (cis E)

## C=CCC1=C(C)C(OC(=O)[C@@H]2[C@@H](C=C(C)C)C2(C)C)CC1=O (stereo partly drawn) [Bioallethrin]
housefly
  KT50 (time where 50% of the insects were killed): 10 min

## COC(=O)/C(F)=C/[C@@H]1[C@@H](C(=O)O[C@H](C#N)c2cccc(Oc3ccccc3)c2)C1(C)C [Product A, (S) α-cyano-3-phenoxy-benzyl(1R, trans) 2,2-dimethyl-3-[(ΔZ) 2-fluoro-3-oxo-3-methoxy-propenyl]-cyclopropane carboxylate]
[1]
  percentage of cockroaches knocked down at 100 µg/mL: 100%
[1]; [6]
  killing activity on cockroaches: good killing activity
Rats [2]
  toxicity on mammals lower than that of C (cis E), orally: at least 20 times
[3]
  LD50: > 2000 mg/kg
housefly
  KT50 (time where 50% of the insects were killed): 2.7 min
housefly; [6]
  killing activity on flies: good killing activity
Rats [4]
  toxicity on mammals lower than that of C (cis E), intravenously: at least 20 times
[5]
  LD50: ~10 mg/kg

## COC(=O)/C(F)=C\[C@@H]1[C@@H](C(=O)O[C@H](C#N)c2cccc(Oc3ccccc3)c2)C1(C)C [Product B]
[1]
  percentage of cockroaches knocked down at 100 µg/mL: 47%
[3]
  LD50: > 200 mg/kg
[5]
  LD50: 2.5 to 5 mg/kg

## COC(=O)/C(F)=C\[C@H]1[C@@H](C(=O)O[C@H](C#N)c2cccc(Oc3ccccc3)c2)C1(C)C [Product C]
[1]
  percentage of cockroaches knocked down at 100 µg/mL: 95%
[3]
  LD50: ~100 mg/kg
housefly
  KT50 (time where 50% of the insects were killed): 2.7 min
[5]
  LD50: 0.1 to 0.5 mg/kg

## COC(=O)/C(F)=C/[C@H]1[C@@H](C(=O)O[C@H](C#N)c2cccc(Oc3ccccc3)c2)C1(C)C [Product D]
[1]
  percentage of cockroaches knocked down at 500 µg/mL: 90%
[3]
  LD50: > 200 mg/kg
housefly
  KT50 (time where 50% of the insects were killed): 3.7 min
[5]
  LD50: 2.5 to 7.5 mg/kg

## CC(C)=CC1C(C(=O)OCN2C(=O)C3=C(CCCC3)C2=O)C1(C)C (stereo not drawn) [TETRAMETHRIN, Tetramethrin]
[1]
  percentage of cockroaches knocked down at 500 µg/mL: 70%
